Assay results from US20220153751A1, “BIFUNCTIONAL COMPOUNDS” (BioTheryX, Inc., priority 2018, published 2022).

Legend:
Format in all cases: cell-based
[1] = molecular target: T1, CK1α (Homo sapiens, UniProt P48729+Q96SW2); test: CK1α degradation assay (Western blot, MV-4-11 cells); conditions: MV4-11, 6-8 h
T1 construct: Whole cell extracts were prepared using RIPA buffer; endogenous in cells; host or cells: MV-4-11
Description: MV-4-11 cells were grown in RPMI 1640 media supplemented with 10% fetal bovine serum, streptomycin and penicillin.
Cells were cultured at approximately 10^6 cells per mL and incubated in DMSO or the indicated compound for 6-8 h. Whole cell extracts were prepared using RIPA buffer according to manufacturer's protocol (Pierce). Briefly, 3×10^6 cells were washed once in PBS, the cell pellets were resuspended in RIPA buffer and allowed to incubate for 15 minutes on ice. Cells debris was removed by centrifugation and the cleared whole cell lysates were transferred to new tubes for further analysis.
For Western blot analysis, whole cell protein extracts were separated on 4-12% SDS-polyacrylamide gels, transferred to nitrocellulose and probed with the indicated primary antibodies. Membranes were subsequently washed and probed with the appropriate IRDye secondary antibodies (LI-COR). The signal was detected using the Odyssey Imaging System (LI-COR).
The following antibodies were used in these studies: Anti-eRF3/GSPT1: Abcam, ab126090 (Cambridge, Mass.); Anti-Ikaros: Abcam, ab191394 (Cambridge, Mass.); Anti-CK1α: Abcam, ab108296 (Cambridge, Mass.); Anti-CDK9: Santa Cruz Biotechnology, sc13130 (Dallas, Tex.); Anti-CDK16: Millipore Sigma, HPA001366 (St. Louis, Mo.); 3-actin (8H10comD10) mouse monoclonal antibody: Cell Signaling Technology, #3700 (Danvers, Mass.); IRDye 680RD Goat anti-rabbit antibody: LI-COR, 926-68071 (Lincoln, Nebr.); IRDye 800CW Goat anti-mouse antibody: LI-COR, 926-32210 (Lincoln, Nebr.).
CDK9 activities are shown in Table 4 at two different concentrations. CDK16 activities are shown in Table 5 at two different concentrations. In each of Tables 1-5, the % degradation values are reported as “A”, “B”, “C”, or “D”. “A” represents a % degradation value of less than 25% (value <25%). “B” represents a % degradation value of equal to or more than 25% and less than 50% (25%≤value<50%). “C” represents a % degradation value of equal to or more than 50% and less than 75% (50%≤value<75%). “D” represents a % degradation value of equal to or more than 75% (value ≥75%).

[2] = test system: MOLM-13 cells; test: MOLM-13 cell viability assay (CellTiter-Glo); conditions: Homo sapiens, MOLM-13, 72 h, 3 days, read-out: MOLM-13 Cell Viability % DMSO at 1 μM
How it was run: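 MOLM-13 cells at 2500 cells/well were exposed to compound for 3 days at 37 °C. Viability was read by CellTiter-Glo luminescence and expressed as % of DMSO control, binned A (<50%), B (50–<70%), C (70–<90%) or D (≥90%).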

[3] = molecular target: T2, GSPT1 (Homo sapiens, UniProt P15170+Q96SW2); test: GSPT1 degradation assay (Western blot, MV-4-11 cells); conditions: MV4-11, 6-8 h
T2 construct: Whole cell extracts were prepared using RIPA buffer; endogenous in cells; host or cells: MV-4-11
T2 sequence (P15170 whole entry): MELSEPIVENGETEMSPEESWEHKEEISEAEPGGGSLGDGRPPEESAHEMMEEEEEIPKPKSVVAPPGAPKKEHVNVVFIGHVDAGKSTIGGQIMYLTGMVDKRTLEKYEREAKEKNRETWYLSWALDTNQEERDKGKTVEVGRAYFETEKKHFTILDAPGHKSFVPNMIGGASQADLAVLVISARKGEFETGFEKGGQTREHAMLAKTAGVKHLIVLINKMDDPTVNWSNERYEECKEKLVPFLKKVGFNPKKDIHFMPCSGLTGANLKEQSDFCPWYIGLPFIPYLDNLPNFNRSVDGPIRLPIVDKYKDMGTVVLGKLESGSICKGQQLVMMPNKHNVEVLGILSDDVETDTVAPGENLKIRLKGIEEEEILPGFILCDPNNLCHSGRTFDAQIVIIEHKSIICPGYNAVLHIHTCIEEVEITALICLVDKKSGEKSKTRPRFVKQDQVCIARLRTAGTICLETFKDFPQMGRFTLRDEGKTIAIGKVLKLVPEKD
T2 sequence (Q96SW2 whole entry): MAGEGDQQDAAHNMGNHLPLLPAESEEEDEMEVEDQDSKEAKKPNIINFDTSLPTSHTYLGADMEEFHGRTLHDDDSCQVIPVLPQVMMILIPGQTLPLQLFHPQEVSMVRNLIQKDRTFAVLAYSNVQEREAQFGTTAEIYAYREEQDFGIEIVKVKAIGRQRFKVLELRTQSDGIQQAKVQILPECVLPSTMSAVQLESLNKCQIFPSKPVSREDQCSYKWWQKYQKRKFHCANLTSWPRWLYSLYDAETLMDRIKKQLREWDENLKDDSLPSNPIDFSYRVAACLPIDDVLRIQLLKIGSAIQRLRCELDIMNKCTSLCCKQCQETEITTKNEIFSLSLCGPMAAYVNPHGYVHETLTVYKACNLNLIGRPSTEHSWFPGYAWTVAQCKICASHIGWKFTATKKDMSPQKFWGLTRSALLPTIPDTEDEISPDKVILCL
T2 sequence (Q16531 whole entry partner): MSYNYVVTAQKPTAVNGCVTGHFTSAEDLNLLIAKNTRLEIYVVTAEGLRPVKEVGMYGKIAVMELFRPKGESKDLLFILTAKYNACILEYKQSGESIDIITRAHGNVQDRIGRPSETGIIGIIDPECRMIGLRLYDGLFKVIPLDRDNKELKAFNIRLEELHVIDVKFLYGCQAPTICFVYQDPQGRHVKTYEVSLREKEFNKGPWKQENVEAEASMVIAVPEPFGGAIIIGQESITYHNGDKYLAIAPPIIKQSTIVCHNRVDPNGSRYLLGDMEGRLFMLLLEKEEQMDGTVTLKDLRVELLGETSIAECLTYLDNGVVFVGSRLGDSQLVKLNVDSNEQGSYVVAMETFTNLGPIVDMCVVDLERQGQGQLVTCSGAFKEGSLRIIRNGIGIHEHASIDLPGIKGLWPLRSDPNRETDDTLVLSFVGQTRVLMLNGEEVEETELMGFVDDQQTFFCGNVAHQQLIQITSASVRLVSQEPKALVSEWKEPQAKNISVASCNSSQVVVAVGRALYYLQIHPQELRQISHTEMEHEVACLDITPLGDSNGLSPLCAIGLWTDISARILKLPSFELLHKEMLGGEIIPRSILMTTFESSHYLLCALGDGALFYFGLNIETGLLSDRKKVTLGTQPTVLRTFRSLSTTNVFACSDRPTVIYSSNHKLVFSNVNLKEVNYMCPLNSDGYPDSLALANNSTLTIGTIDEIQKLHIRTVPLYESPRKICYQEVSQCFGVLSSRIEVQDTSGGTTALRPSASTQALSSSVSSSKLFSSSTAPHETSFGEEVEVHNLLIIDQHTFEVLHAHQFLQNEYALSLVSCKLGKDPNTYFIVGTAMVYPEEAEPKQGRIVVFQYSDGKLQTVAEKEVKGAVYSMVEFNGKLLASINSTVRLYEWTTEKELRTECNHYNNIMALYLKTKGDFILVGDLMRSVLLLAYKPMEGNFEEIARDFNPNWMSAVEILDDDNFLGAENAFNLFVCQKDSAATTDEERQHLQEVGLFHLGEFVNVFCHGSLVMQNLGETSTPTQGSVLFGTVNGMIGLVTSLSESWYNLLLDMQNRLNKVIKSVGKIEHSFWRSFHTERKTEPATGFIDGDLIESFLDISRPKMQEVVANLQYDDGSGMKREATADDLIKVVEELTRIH
How it was run: (§1)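 6-8 h cpd vs DMSO, ~10^6 cells/mL; RIPA lysis on ice 15 min; 4-12% SDS-PAGE, nitrocellulose, IRDye secondaries, Odyssey scan. % degradation categories: A <25, B 25-<50, C 50-<75, D ≥75%.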

[4] = molecular target: T3, CDK9 (Homo sapiens, UniProt P50750); test: CDK9 degradation assay (Western blot, MV-4-11 cells); conditions: 6-8 h; for Dmax at 0.1 µM: MV4-11, 0.1 μM; for Dmax at 1 µM: MV4-11, 1 μM
T3 construct: Whole cell extracts were prepared using RIPA buffer; endogenous in cells; host or cells: MV-4-11
T3 sequence (P50750 whole entry): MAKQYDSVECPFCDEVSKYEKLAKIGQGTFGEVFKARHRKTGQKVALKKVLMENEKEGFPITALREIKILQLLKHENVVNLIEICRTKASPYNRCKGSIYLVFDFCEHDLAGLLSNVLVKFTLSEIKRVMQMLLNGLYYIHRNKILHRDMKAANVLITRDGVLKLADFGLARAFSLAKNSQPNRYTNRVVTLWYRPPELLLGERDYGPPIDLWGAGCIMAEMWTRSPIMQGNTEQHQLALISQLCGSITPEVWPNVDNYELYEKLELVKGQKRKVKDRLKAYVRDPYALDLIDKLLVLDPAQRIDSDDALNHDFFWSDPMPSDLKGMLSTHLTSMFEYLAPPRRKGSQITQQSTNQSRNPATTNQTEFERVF
How it was run: as §1

[5] = molecular target: T4, CDK16 (Homo sapiens, UniProt Q00536); test: CDK16 degradation assay (Western blot, MV-4-11 cells); conditions: 6-8 h; for Dmax at 0.1 µM: MV4-11, 0.1 μM; for Dmax at 1 µM: MV4-11, 1 μM
T4 construct: Whole cell extracts were prepared using RIPA buffer; endogenous in cells; host or cells: MV-4-11
T4 sequence (Q00536 whole entry): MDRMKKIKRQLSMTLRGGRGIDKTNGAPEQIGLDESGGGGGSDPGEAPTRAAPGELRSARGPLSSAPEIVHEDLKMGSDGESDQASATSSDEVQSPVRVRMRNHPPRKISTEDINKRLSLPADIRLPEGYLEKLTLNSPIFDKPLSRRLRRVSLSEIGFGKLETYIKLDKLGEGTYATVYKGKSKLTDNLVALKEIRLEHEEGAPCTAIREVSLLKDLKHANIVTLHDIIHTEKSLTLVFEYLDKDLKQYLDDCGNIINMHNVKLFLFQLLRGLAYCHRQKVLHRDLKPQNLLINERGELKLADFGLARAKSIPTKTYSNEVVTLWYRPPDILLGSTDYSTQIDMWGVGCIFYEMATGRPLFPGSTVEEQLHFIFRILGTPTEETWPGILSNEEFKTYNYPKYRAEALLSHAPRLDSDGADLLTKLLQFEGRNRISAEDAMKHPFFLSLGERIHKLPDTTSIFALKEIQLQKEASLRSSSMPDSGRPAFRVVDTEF
How it was run: as §1

[6] = molecular target: T5, IKAROS (Homo sapiens, UniProt Q13422+Q96SW2); test: IKAROS degradation assay (Western blot, MV-4-11 cells); conditions: MV4-11, 6-8 h
T5 construct: endogenous in cells; host or cells: MV-4-11
T5 sequence (Q13422 whole entry): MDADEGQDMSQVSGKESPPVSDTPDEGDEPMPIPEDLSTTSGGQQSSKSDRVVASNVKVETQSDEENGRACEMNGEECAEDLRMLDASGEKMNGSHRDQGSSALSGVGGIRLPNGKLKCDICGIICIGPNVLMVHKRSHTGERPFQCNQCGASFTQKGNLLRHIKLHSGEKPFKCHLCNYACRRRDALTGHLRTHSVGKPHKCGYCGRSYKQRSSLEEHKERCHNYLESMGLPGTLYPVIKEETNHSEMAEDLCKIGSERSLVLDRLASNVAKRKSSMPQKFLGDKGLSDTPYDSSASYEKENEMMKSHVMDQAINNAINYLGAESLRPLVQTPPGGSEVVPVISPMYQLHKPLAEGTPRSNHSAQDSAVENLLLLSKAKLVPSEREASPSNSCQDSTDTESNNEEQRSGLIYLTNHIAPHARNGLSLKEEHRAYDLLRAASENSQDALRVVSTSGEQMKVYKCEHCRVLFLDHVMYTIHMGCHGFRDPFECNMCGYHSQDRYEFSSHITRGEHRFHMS
T5 sequence (Q96SW2 whole entry): as the sequence (Q96SW2 whole entry) above
T5 sequence (Q16531 whole entry partner): as the sequence (Q16531 whole entry partner) above
How it was run: as §1

T1 sequence (P48729 whole entry): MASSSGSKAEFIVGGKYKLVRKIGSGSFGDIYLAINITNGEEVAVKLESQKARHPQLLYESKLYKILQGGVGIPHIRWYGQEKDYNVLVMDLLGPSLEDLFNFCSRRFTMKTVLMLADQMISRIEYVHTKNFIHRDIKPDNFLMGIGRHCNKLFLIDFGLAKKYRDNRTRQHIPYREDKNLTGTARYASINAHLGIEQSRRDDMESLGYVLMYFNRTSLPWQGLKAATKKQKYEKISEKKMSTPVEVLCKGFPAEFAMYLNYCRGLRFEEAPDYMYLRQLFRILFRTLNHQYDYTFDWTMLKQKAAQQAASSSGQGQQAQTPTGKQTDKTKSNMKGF
T1 sequence (Q96SW2 whole entry): as the sequence (Q96SW2 whole entry) above
T1 sequence (Q16531 whole entry partner): as the sequence (Q16531 whole entry partner) above

SMILES | Dmax at 1 µM [1] [%] | viability at 1 µM [2] [%] | Dmax at 1 µM [3] [%] | Dmax at 0.1 µM [4] [%] | Dmax at 1 µM [4] [%] | Dmax at 0.1 µM [5] [%] | Dmax at 1 µM [5] [%] | Dmax at 1 µM [6] [%]
CC(C)(C)c1cnc(CSc2cnc(NC(=O)C3CCN(CC(=O)NCCCCCNC(=O)NCc4scc5c4CN(C4CCC(=O)NC4=O)C5=O)CC3)s2)o1 (centres unmarked) [Compound 11, N-(5-(((5-(tert-butyl)oxazol-2-yl)methyl)thio)thiazol-2-yl)-1-(2-((5-(3-((5-(2,6-dioxopiperidin-3-yl)-4-oxo-5,6-dihydro-4H-thieno[3,4-c]pyrrol-1-yl)methyl)ureido)pentyl)amino)-2-oxoethyl)piperidine-4-carboxamide] | 25 to 50 | > 90 | 25 to 50 | – | – | – | – | –
Cn1ncc(-c2nc(N[C@H]3CC[C@H](NCC(=O)NCCCCCNCC(=O)NCc4cc5c(s4)C(=O)N(C4CCC(=O)NC4=O)C5)CC3)ncc2Cl)c1CC1CC1 (some centres unmarked) [Compound 30, 2-(((1r,4r)-4-((5-chloro-4-(5-(cyclopropylmethyl)-1-methyl-1H-pyrazol-4-yl)pyrimidin-2-yl)amino)cyclohexyl)amino)-N-(5-((2-(((5-(2,6-dioxopiperidin-3-yl)-6-oxo-5,6-dihydro-4H-thieno[2,3-c]pyrrol-2-yl)methyl)amino)-2-oxoethyl)amino)pentyl)acetamide] | < 25 | > 90 | 50 to 75 | 50 to 75 | 50 to 75 | 25 to 50 | 50 to 75 | 50 to 75
CC(C)(C)c1cnc(CSc2cnc(NC(=O)C3CCN(CC(=O)NCCCCCNCC(=O)NCc4scc5c4CN(C4CCC(=O)NC4=O)C5=O)CC3)s2)o1 (centres unmarked) [Compound 33, N-(5-(((5-(tert-butyl)oxazol-2-yl)methyl)thio)thiazol-2-yl)-1-(2-((5-((2-(((5-(2,6-dioxopiperidin-3-yl)-4-oxo-5,6-dihydro-4H-thieno[3,4-c]pyrrol-1-yl)methyl)amino)-2-oxoethyl)amino)pentyl)amino)-2-oxoethyl)piperidine-4-carboxamide] | ≥ 75 | > 90 | ≥ 75 | ≥ 75 | ≥ 75 | < 25 | 50 to 75 | 50 to 75
Cn1ncc(-c2nc(N[C@H]3CC[C@H](NCC(=O)NCCCCNCC(=O)NCc4cc5c(s4)C(=O)N(C4CCC(=O)NC4=O)C5)CC3)ncc2Cl)c1CC1CC1 (some centres unmarked) [Compound 35, 2-(((1r,4r)-4-((5-chloro-4-(5-(cyclopropylmethyl)-1-methyl-1H-pyrazol-4-yl)pyrimidin-2-yl)amino)cyclohexyl)amino)-N-(4-((2-(((5-(2,6-dioxopiperidin-3-yl)-6-oxo-5,6-dihydro-4H-thieno[2,3-c]pyrrol-2-yl)methyl)amino)-2-oxoethyl)amino)butyl)acetamide] | 25 to 50 | > 90 | ≥ 75 | 25 to 50 | 25 to 50 | < 25 | 50 to 75 | 50 to 75
Cn1ncc(-c2nc(N[C@H]3CC[C@H](NCC(=O)NCCCCNCC(=O)NCc4scc5c4CN(C4CCC(=O)NC4=O)C5=O)CC3)ncc2F)c1CC1CC1 (some centres unmarked) [Compound 39, 2-(((1r,4r)-4-((4-(5-(cyclopropylmethyl)-1-methyl-1H-pyrazol-4-yl)-5-fluoropyrimidin-2-yl)amino)cyclohexyl)amino)-N-(4-((2-(((5-(2,6-dioxopiperidin-3-yl)-4-oxo-5,6-dihydro-4H-thieno[3,4-c]pyrrol-1-yl)methyl)amino)-2-oxoethyl)amino)butyl)acetamide] | 25 to 50 | > 90 | 50 to 75 | 25 to 50 | ≥ 75 | < 25 | ≥ 75 | 25 to 50
Cn1ncc(-c2nc(N[C@H]3CC[C@H](NCC(=O)NCCNCC(=O)NCc4cc5c(s4)C(=O)N(C4CCC(=O)NC4=O)C5)CC3)ncc2Cl)c1CC1CC1 (some centres unmarked) [Compound 40, 2-(((1r,4r)-4-((5-chloro-4-(5-(cyclopropylmethyl)-1-methyl-1H-pyrazol-4-yl)pyrimidin-2-yl)amino)cyclohexyl)amino)-N-(2-((2-(((5-(2,6-dioxopiperidin-3-yl)-6-oxo-5,6-dihydro-4H-thieno[2,3-c]pyrrol-2-yl)methyl)amino)-2-oxoethyl)amino)ethyl)acetamide] | 25 to 50 | 70 to 90 | ≥ 75 | 50 to 75 | ≥ 75 | 25 to 50 | 50 to 75 | 50 to 75
Cn1ncc(-c2nc(N[C@H]3CC[C@H](NCC(=O)NCCNC(=O)NCc4cc5c(s4)C(=O)N(C4CCC(=O)NC4=O)C5)CC3)ncc2Cl)c1CC1CC1 (some centres unmarked) [Compound 45, 2-(((1r,4r)-4-((5-chloro-4-(5-(cyclopropylmethyl)-1-methyl-1H-pyrazol-4-yl)pyrimidin-2-yl)amino)cyclohexyl)amino)-N-(2-(3-((5-(2,6-dioxopiperidin-3-yl)-6-oxo-5,6-dihydro-4H-thieno[2,3-c]pyrrol-2-yl)methyl)ureido)ethyl)acetamide] | < 25 | > 90 | 25 to 50 | – | – | – | – | 25 to 50
Cn1ncc(-c2nc(N[C@H]3CC[C@H](NCC(=O)NCCOCCOCCOCCNc4cccc5c4C(=O)N(C4CCC(=O)NC4=O)C5=O)CC3)ncc2F)c1CC1CC1 (some centres unmarked) [Compound 50, 2-(((1r,4r)-4-((4-(5-(cyclopropylmethyl)-1-methyl-1H-pyrazol-4-yl)-5-fluoropyrimidin-2-yl)amino)cyclohexyl)amino)-N-(2-(2-(2-(2-((2-(2,6-dioxopiperidin-3-yl)-1,3-dioxoisoindolin-4-yl)amino)ethoxy)ethoxy)ethoxy)ethyl)acetamido] | 25 to 50 | > 90 | 50 to 75 | – | – | – | – | ≥ 75
CC(C)(C)c1cnc(CSc2cnc(NC(=O)C3CCN(CC(=O)NCCCNCC(=O)NCc4cc5c(s4)C(=O)N(C4CCC(=O)NC4=O)C5)CC3)s2)o1 (centres unmarked) [Compound 52, N-(5-(((5-(tert-butyl)oxazol-2-yl)methyl)thio)thiazol-2-yl)-1-(2-((3-((2-(((5-(2,6-dioxopiperidin-3-yl)-6-oxo-5,6-dihydro-4H-thieno[2,3-c]pyrrol-2-yl)methyl)amino)-2-oxoethyl)amino)propyl)amino)-2-oxoethyl)piperidine-4-carboxamide] | 25 to 50 | > 90 | 50 to 75 | – | – | – | – | 25 to 50
Cn1ncc(-c2nc(N[C@H]3CC[C@H](NCCOCCOCCOCCOCCNc4cccc5c4C(=O)N(C4CCC(=O)NC4=O)C5=O)CC3)ncc2Cl)c1CC1CC1 (some centres unmarked) [Compound 64, 4-((14-(((1r,4r)-4-((5-chloro-4-(5-(cyclopropylmethyl)-1-methyl-1H-pyrazol-4-yl)pyrimidin-2-yl)amino)cyclohexyl)amino)-3,6,9,12-tetraoxatetradecyl)amino)-2-(2,6-dioxopiperidin-3-yl)isoindoline-1,3-dione] | 25 to 50 | > 90 | ≥ 75 | – | – | – | – | ≥ 75
